# Patent EP4389106A1, “METHOD OF PREPARATION OF LIPOSOMAL C[…] […] AND LIPOSOMAL C[…] […]” (Aero-Bw K. Domagala Sp. Jawna, priority 2022, dated 2024)
# Where “and” joins values, the source holds several entries; their conditions need not be identical. Identical values can stand only once.
# Test system: Salmonella typhimurium TA98
# Assay: Ames test, strain TA98 (reading frame shift)
# Type: cell-based
# Details: positive control at 2 µg/mL
# Procedure: The aim of the study was to assess the mutagenic potential of three extracts obtained from stem cells using two strains of Salmonella typhimurium carrying two types of mutations: TA 98-reading frame shift and TA 100-base pair substitution.
# The experimental procedure was carried out basing on the manufacturer's experimental protocol (Xenometrix).
smiles,measurement,value
"O=[N+]([O-])c1ccc2c(c1)Cc1ccccc1-2 [Extract 2-NF, 2-nitrofluorene]",MOI (Multiplicity of induction compared to baseline),6.9 and 5.6
